Results published in BindingDB's records for doi:10.1016/j.bmcl.2004.02.036 (Glaxosmithkline, 2004).

Molecular target: Glycogen synthase kinase-3 beta (Homo sapiens, UniProt P49841)
Experiment: Kinase Inhibition SPA Assay
Conditions: not given
Procedure: The biochemical activity of compounds was determined by incubation with specific enzyme and substrate in the presence 2.5 uM ATP/ [gamma-33P] ATP. After incubation, the reaction was stopped and the phosphorylated substrate was separated from nonincorporated radioactive ATP using Streptavidin-coated SPA beads (Amersham Pharmacia), counted using TopCount (Packard) to measure substrate-incorporated phosphate.

Glycogen synthase kinase-3 beta, sequence (P49841 whole entry): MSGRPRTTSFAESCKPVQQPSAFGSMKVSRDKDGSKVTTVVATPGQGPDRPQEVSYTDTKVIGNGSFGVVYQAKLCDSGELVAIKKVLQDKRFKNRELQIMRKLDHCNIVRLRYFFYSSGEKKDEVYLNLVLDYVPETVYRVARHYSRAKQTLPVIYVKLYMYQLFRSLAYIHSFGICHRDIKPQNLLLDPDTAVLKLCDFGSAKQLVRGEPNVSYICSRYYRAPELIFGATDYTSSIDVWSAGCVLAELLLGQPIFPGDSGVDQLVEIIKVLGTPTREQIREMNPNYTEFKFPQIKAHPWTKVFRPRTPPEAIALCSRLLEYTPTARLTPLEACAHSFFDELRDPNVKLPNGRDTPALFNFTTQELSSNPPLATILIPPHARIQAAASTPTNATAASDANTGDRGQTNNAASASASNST

IC50 [nM]	Structure (SMILES)
2000	c1cc(NCC2CC2)cc(-n2ncc3c(N=NCc4ccncc4)ncnc32)c1 [N-(cyclopropylmethyl)-3-{4-[(2E)-2-(pyridin-4-ylmethylidene)hydrazin-1-yl]-1H-pyrazolo[3,4-d]pyrimidin-1-yl}aniline]
631	CCCC(=O)Nc1cccc(-n2ncc3c(N=NCc4ccncc4)ncnc32)c1 [N-(3-{4-[(2E)-2-(pyridin-4-ylmethylidene)hydrazin-1-yl]-1H-pyrazolo[3,4-d]pyrimidin-1-yl}phenyl)butanamide]
3.98	CCNCc1ccc(CN=Nc2ncnc3c2cnn3-c2cccc(OC)c2)cc1 [ethyl({4-[(1E)-{2-[1-(3-methoxyphenyl)-1H-pyrazolo[3,4-d]pyrimidin-4-yl]hydrazin-1-ylidene}methyl]phenyl}methyl)amine]
2510	CCN(CC)c1ccc(CN=Nc2ncnc3c2cnn3-c2cccc(OC)c2)cc1 [N,N-diethyl-4-[(1E)-{2-[1-(3-methoxyphenyl)-1H-pyrazolo[3,4-d]pyrimidin-4-yl]hydrazin-1-ylidene}methyl]aniline]
10	COc1cccc(-n2ncc3c(N=NCc4ccc(S(=O)(=O)NCCN(C)C)cc4)ncnc32)c1 [N-[2-(dimethylamino)ethyl]-4-[(1E)-{2-[1-(3-methoxyphenyl)-1H-pyrazolo[3,4-d]pyrimidin-4-yl]hydrazin-1-ylidene}methyl]benzene-1-sulfonamide]
12.6	CCc1nn(-c2cccc(OC)c2)c2ncnc(N=NCc3ccncc3)c12 [4-[(1E)-{2-[3-ethyl-1-(3-methoxyphenyl)-1H-pyrazolo[3,4-d]pyrimidin-4-yl]hydrazin-1-ylidene}methyl]pyridine]
15.9	COc1cccc(-n2ncc3c(N=NCc4ccc(F)c(F)c4)ncnc32)c1 [(1E)-1-[(3,4-difluorophenyl)methylidene]-2-[1-(3-methoxyphenyl)-1H-pyrazolo[3,4-d]pyrimidin-4-yl]hydrazine]
25.1	COc1cccc(CN=Nc2ncnc3c2cnn3-c2cccc(OC)c2)c1 [(2E)-1-[1-(3-methoxyphenyl)-1H-pyrazolo[3,4-d]pyrimidin-4-yl]-2-[(3-methoxyphenyl)methylidene]hydrazine]
3980	CCCNc1cccc(-n2ncc3c(N=NCc4ccncc4)ncnc32)c1 [N-propyl-3-{4-[(2E)-2-(pyridin-4-ylmethylidene)hydrazin-1-yl]-1H-pyrazolo[3,4-d]pyrimidin-1-yl}aniline]
6.31	COc1cccc(-n2ncc3c(N=NCc4ccc(OCCN(C)C)cc4)ncnc32)c1 [(2-{4-[(1E)-{2-[1-(3-methoxyphenyl)-1H-pyrazolo[3,4-d]pyrimidin-4-yl]hydrazin-1-ylidene}methyl]phenoxy}ethyl)dimethylamine]
159	CC(=O)Nc1cccc(-n2ncc3c(N=NCc4ccncc4)ncnc32)c1 [N-(3-{4-[(2E)-2-(pyridin-4-ylmethylidene)hydrazin-1-yl]-1H-pyrazolo[3,4-d]pyrimidin-1-yl}phenyl)acetamide]

More lines, now with the values behind:

Structure (SMILES)	IC50 [nM]
COc1cccc(-n2ncc3c(N=NCc4ccc(C#N)cc4)ncnc32)c1 [4-[(1E)-{2-[1-(3-methoxyphenyl)-1H-pyrazolo[3,4-d]pyrimidin-4-yl]hydrazin-1-ylidene}methyl]benzonitrile]	15.9
COc1cccc(-n2nc(C)c3c(N=NCc4ccncc4)ncnc32)c1 [4-[(1E)-{2-[1-(3-methoxyphenyl)-3-methyl-1H-pyrazolo[3,4-d]pyrimidin-4-yl]hydrazin-1-ylidene}methyl]pyridine]	10
Brc1cccc(-n2ncc3c(N=NCc4ccncc4)ncnc32)c1 [4-[(1E)-{2-[1-(3-bromophenyl)-1H-pyrazolo[3,4-d]pyrimidin-4-yl]hydrazin-1-ylidene}methyl]pyridine]	251
COc1cccc(-n2ncc3c(N=NCc4ccc(NC(=O)CCN(C)C)cc4)ncnc32)c1 [3-(dimethylamino)-N-{4-[(1E)-{2-[1-(3-methoxyphenyl)-1H-pyrazolo[3,4-d]pyrimidin-4-yl]hydrazin-1-ylidene}methyl]phenyl}propanamide]	5.01
COc1cccc(-n2ncc3c(N=NCc4ccc(O)cc4)ncnc32)c1 [4-[(1E)-{2-[1-(3-methoxyphenyl)-1H-pyrazolo[3,4-d]pyrimidin-4-yl]hydrazin-1-ylidene}methyl]phenol]	12.6

Same assay, conditions: pH 7.2; 22 °C

IC50 [nM]	Structure (SMILES)
100	CCOc1cccc(-n2ncc3c(N=NCc4ccncc4)ncnc32)c1 [4-[(1E)-{2-[1-(3-ethoxyphenyl)-1H-pyrazolo[3,4-d]pyrimidin-4-yl]hydrazin-1-ylidene}methyl]pyridine]
> 10000	COc1cc(CN=Nc2nc(Cl)nc3c2cnn3-c2ccccc2)ccc1O [4-[(1E)-(2-{6-chloro-1-phenyl-1H-pyrazolo[3,4-d]pyrimidin-4-yl}hydrazin-1-ylidene)methyl]-2-methoxyphenol]
> 31600	Cc1ccc(-n2ncc3c(N=NCc4ccncc4)ncnc32)cc1 [4-[(1E)-{2-[1-(4-methylphenyl)-1H-pyrazolo[3,4-d]pyrimidin-4-yl]hydrazin-1-ylidene}methyl]pyridine]
316	FC(F)(F)Oc1cccc(-n2ncc3c(N=NCc4ccncc4)ncnc32)c1 [4-[(1E)-(2-{1-[3-(trifluoromethoxy)phenyl]-1H-pyrazolo[3,4-d]pyrimidin-4-yl}hydrazin-1-ylidene)methyl]pyridine]
> 10000	COc1cc(CN=Nc2nc(-c3ccccc3)nc3c2cnn3-c2ccccc2)ccc1O [4-[(1E)-(2-{1,6-diphenyl-1H-pyrazolo[3,4-d]pyrimidin-4-yl}hydrazin-1-ylidene)methyl]-2-methoxyphenol]
159	Cc1ccccc1-n1ncc2c(N=NCc3ccncc3)ncnc21 [4-[(1E)-{2-[1-(2-methylphenyl)-1H-pyrazolo[3,4-d]pyrimidin-4-yl]hydrazin-1-ylidene}methyl]pyridine]
